Test results: publication PMC6370589 (ChemMedChem, 2018)
“Also recorded” adds a separate entry of the source. Each block holds one compound with its values, some of them ahead of it.

Key:
Daoy cells [1] = details: for concentration with appreciable cytotoxicity, not before 48 hours: from 48 h
Daoy cells [2] = assay: MTS cellular metabolic viability assay, Daoy; assay type: cell-based
in vitro = details: human
8 other kinases = details: 1.0 μM, profile of 223 kinases; cited from earlier work
[3] = test system: phosphorylated CDK1 at Tyr15; details: read-out: pCDK1 ELISA EC50; Daoy; previously determined; cited from earlier work
[4] = biological target: Src family tyrosine kinase YES1; details: read-out: YES1 IC50; radiolabeled ATP kinase assay; cited from earlier work
[5] = test system: phosphorylated CDK1 at Tyr15; assay: pCDK1; assay type: cell-based; details: Daoy, 24 h; for change in pCDK1(Tyr15) level vs DMSO control: 220 nM, n=3; for pCDK1 ELISA dose-response: 1 μM to 62 nM, EC50 values not determinable
recombinant PLK1 kinase = recombinant PLK1 kinase (Homo sapiens, UniProt P53350); assay: PLK1 recombinant kinase LANCE TR-FRET assay; assay type: biochemical
WEE1 = details: read-out: WEE1 IC50; radiolabeled ATP kinase assay; cited from earlier work
[6] = test system: advanced refractory solid tumors; details: Phase I, single agent; cited from earlier work
ONS-76 cells = assay: MTS cellular metabolic viability assay, ONS-76; assay type: cell-based; details: ONS-76, 72 h
recombinant WEE1 = recombinant WEE1 (Homo sapiens, UniProt P30291); assay: WEE1 recombinant kinase TR-FRET; assay type: binding
recombinant WEE1, sequence (P30291 whole entry): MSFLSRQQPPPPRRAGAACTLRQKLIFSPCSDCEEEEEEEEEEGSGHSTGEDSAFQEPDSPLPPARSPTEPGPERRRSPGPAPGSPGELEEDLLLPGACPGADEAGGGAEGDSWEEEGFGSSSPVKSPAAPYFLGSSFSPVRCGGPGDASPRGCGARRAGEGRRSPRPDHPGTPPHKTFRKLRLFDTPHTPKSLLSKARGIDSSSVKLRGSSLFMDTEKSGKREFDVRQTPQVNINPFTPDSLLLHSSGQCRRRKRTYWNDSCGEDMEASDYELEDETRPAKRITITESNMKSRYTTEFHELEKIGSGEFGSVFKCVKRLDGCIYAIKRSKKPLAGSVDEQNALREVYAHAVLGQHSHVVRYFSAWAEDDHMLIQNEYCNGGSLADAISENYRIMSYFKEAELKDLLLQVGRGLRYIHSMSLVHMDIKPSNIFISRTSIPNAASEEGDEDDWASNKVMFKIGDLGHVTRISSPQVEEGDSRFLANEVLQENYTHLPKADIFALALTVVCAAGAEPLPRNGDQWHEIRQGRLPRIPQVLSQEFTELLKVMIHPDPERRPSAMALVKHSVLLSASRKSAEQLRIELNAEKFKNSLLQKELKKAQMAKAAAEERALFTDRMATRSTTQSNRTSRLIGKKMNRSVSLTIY

recombinant PLK1 kinase, sequence (P53350 whole entry): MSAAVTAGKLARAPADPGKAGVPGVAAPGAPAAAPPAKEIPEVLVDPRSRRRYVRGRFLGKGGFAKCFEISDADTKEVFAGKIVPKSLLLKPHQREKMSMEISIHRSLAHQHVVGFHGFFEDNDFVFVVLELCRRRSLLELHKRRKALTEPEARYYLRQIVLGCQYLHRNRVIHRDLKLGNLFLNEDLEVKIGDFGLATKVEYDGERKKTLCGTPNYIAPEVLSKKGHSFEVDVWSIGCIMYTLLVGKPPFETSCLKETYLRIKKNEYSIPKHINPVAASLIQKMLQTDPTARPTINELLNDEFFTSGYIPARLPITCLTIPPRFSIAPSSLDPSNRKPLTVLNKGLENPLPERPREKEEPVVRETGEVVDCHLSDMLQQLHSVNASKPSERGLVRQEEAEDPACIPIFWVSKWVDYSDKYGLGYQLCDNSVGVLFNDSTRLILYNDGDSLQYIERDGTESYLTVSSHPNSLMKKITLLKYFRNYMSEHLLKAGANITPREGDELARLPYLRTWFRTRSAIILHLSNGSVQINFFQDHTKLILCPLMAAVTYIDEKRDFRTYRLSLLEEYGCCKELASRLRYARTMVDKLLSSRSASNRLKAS

SMILES: C=CCn1c(=O)c2cnc(Nc3ccc(N4CCN(C)CC4)cc3)nc2n1-c1cccc(C(C)(C)O)n1 [AZD1775, 2-allyl-1-(6-(2-hydroxypropan-2-yl)pyridin-2-yl)-6-((4-(4-methylpiperazin-1-yl)phenyl)amino)-1,2-dihydro-3H-pyrazolo[3,4-d]pyrimidin-3-one, reference compound]
- concentration with cytotoxic effects within 24 hours (Daoy cells [1]; 24 h): > 600 nM
- concentration with cytotoxic effects after 72 hours (Daoy cells [1]; 72 h): > 75 nM
- EC50 (Daoy cells [2]; Homo sapiens, read-out: MTS EC50 used to set the concentration range, Daoy): 150 nM
- EC50 at 72 h (in vitro; Daoy cells): 188 ± 26 nM
- inhibition of 8 other kinases (8 other kinases): > 80%
- EC50 [3]: 220 nM
- IC50 [4]: 14 nM
- change in pCDK1(Tyr15) level vs DMSO control [5]: statistically significant decrease in pCDK1 levels
- pCDK1 ELISA dose-response [5]: comparable effects on pCDK1 levels
- IC50 (recombinant PLK1 kinase): 77.6 ± 9.3 nM
- IC50 (WEE1): 5 nM
- dose-limiting toxicities [6]: supraventricular tachyarrhythmia and myelosuppression

SMILES: C=CCn1c(=O)c2cnc(Nc3ccccc3)nc2n1-c1cccc(C(C)(C)O)n1 [Compound 24, 2-allyl-1-(6-(2-hydroxypropan-2-yl)pyridin-2-yl)-6-(phenylamino)-1,2-dihydro-3H-pyrazolo[3,4-d]pyrimidin-3-one]
- change in pCDK1(Tyr15) level vs DMSO control [5]: significant increases in pCDK1 levels

SMILES: C=CCn1c(=O)c2cnc(Nc3cccc(N(C)C)c3)nc2n1-c1cccc(C(C)(C)O)n1 [Compound 25, 2-allyl-6-((3-(dimethylamino)phenyl)amino)-1-(6-(2-hydroxypropan-2-yl)pyridin-2-yl)-1,2-dihydro-3H-pyrazolo[3,4-d]pyrimidin-3-one]
- change in pCDK1(Tyr15) level vs DMSO control [5]: significant increases in pCDK1 levels

SMILES: C=CCn1c(=O)c2cnc(Nc3ccc(CCN(C)C)cc3)nc2n1-c1cccc(C(C)(C)O)n1 [Compound 28, 2-allyl-6-((4-(2-(dimethylamino)ethyl)phenyl)amino)-1-(6-(2-hydroxypropan-2-yl)pyridin-2-yl)-1,2-dihydro-3H-pyrazolo[3,4-d]pyrimidin-3-one]
- concentration with some cytotoxicity within 24 hours (Daoy cells [1]; 24 h): 1.2 µM
- EC50 at 72 h (in vitro): 651 ± 16 nM
- change in pCDK1(Tyr15) level vs DMSO control [5]: statistically significant decrease in pCDK1 levels
- pCDK1 ELISA dose-response [5]: comparable effects on pCDK1 levels
- IC50 (recombinant PLK1 kinase): 270 ± 29 nM

- IC50 (recombinant PLK1 kinase): 161 ± 10 nM
SMILES: C=CCn1c(=O)c2cnc(Nc3ccc(OCCN(C)C)cc3)nc2n1-c1cccc(C(C)(C)O)n1 [Compound 29, 2-allyl-6-((4-(2-(dimethylamino)ethoxy)phenyl)amino)-1-(6-(2-hydroxypropan-2-yl)pyridin-2-yl)-1,2-dihydro-3H-pyrazolo[3,4-d]pyrimidin-3-one]
- CellTox Green dose-response / EC50 determination (Daoy cells [1]; 72 h, up to 2400 nM): Sigmoidal dose-response curves were not obtained; also recorded: did not display sufficient cytotoxicity for EC50 determination
- concentration with appreciable cytotoxicity, not before 48 hours (Daoy cells [1]): > 300 nM
- MTS % effect (activity) at 600 nM, Daoy (Daoy cells [2]; 72 h, 600 nM): 81%
- change in pCDK1(Tyr15) level vs DMSO control [5]: statistically significant decrease in pCDK1 levels
- pCDK1 ELISA dose-response [5]: comparable effects on pCDK1 levels

- IC50 (recombinant PLK1 kinase): 394 ± 37 nM
SMILES: C=CCn1c(=O)c2cnc(Nc3ccc(N4CCN(C)CC4)cc3)nc2n1-c1cccc(C(C)(C)O)c1 [Compound 31, 2-allyl-1-(3-(2-hydroxypropan-2-yl)phenyl)-6-((4-(4-methylpiperazin-1-yl)phenyl)amino)-1,2-dihydro-3H-pyrazolo[3,4-d]pyrimidin-3-one]
- concentration with appreciable cytotoxicity, not before 48 hours (Daoy cells [1]): > 300 nM
- change in pCDK1(Tyr15) level vs DMSO control [5]: did not cause a significant reduction in pCDK1 levels
- MTS % effect at 1.16 μM, ONS-76 (ONS-76 cells): 57%

- IC50 (recombinant WEE1): 190 ± 12 nM
SMILES: C=C(C)c1cccc(-n2[nH]c(=O)c3cnc(Nc4ccc(N5CCN(C)CC5)cc4)nc32)n1 [Compound 34, 6-((4-(4-methylpiperazin-1-yl)phenyl)amino)-1-(6-(prop-1-en-2-yl)pyridin-2-yl)-1,2-dihydro-3H-pyrazolo[3,4-d]pyrimidin-3-one]
